In patent EP0938474B1, “CYCLOPROPYLINDOLE COMPOUNDS AND THEIR USE AS PRODRUGS” (AUCKLAND UNISERVICES LIMITED, priority 1996, dated 1998):

Test system: UV4
Experiment: Cytotoxicity (growth inhibition), 4 h drug exposure, methylene blue staining
Format: cell-based, rodent
Details: Cricetulus griseus; UV4 mutant AA8 line defective in excision repair; 4 hours exposure, then three days incubation
Experimental: Compounds of the invention were tested for cytotoxicity against four different cell lines, all of which are widely available in the art. AA8 is a wild type rodent cell line. UV4 is a mutant AA8 cell line defective in excision repair, and hypersensitive to many alkylating agents. EMT6 is a widely-used rodent line. SKOV is a human ovarian cell line.
Cell culture assays were performed in 96-well microtitre trays. Compounds of the invention were added in culture medium, using serial two-fold dilutions to provide duplicate cultures at five different concentrations for each of eight drugs (plus eight controls) per tray. Drugs were dissolved in water or DMSO immediately prior to addition to the cell culture. After 4 hours, drugs were removed by washing cultures three times with fresh medium, and the trays were incubated for a futher three days. Cell density was then determined by staining with methylene blue as described previously (Finlay, G. J., et al, Anal. Biochm. 1984, 139, 272-277) and the IC50 was calculated as the drug concentration providing 50% inhibition of growth relative to the controls.

COc1cc2cc(C(=O)N3CC(COS(C)(=O)=O)c4c3cc(N)c3ccccc43)[nH]c2c(OC)c1OC (stereo not shown) [15o, 5-amino-1-[(methanesulfonyloxy)methyl]-3-[(5,6,7-trimethoxyindol-2-yl)carbonyl]-1,2-dihydro-3H-benz[e]indole] was tested, and the IC50 was 665 nM.
